# Assay results: ChEMBL document CHEMBL3351996, “Carbonic anhydrase inhibitory activity of sulfonamides and carboxylic acids incorporating cyclic imide scaffolds” (Bioorg Med Chem Lett, 2014)
# Columns and labels:
# [1] = target: Carbonic anhydrase 9 (Homo sapiens, UniProt Q16790)
# Description: Inhibition of human carbonic anhydrase 9 by stopped-flow CO2 hydrase assay
# [2] = target: Carbonic anhydrase 12 (Homo sapiens, UniProt O43570)
# Description: Inhibition of human carbonic anhydrase 12 by stopped-flow CO2 hydrase assay
# [3] = target: Carbonic anhydrase 1 (Homo sapiens, UniProt P00915); test: Inhibition of human carbonic anhydrase 1 by stopped-flow CO2 hydrase assay
# Chain of Carbonic anhydrase 1 (P00915 whole entry): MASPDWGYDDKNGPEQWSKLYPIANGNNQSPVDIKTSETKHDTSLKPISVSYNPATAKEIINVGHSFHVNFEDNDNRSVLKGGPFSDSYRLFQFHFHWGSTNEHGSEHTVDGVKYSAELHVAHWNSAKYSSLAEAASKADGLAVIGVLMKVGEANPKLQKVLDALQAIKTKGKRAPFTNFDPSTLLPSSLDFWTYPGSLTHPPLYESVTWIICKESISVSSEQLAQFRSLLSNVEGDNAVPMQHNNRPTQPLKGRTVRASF
# [4] = target: Carbonic anhydrase 2 (Homo sapiens, UniProt P00918); test: Inhibition of human carbonic anhydrase 2 by stopped-flow CO2 hydrase assay
# Chain of Carbonic anhydrase 12 (O43570 whole entry): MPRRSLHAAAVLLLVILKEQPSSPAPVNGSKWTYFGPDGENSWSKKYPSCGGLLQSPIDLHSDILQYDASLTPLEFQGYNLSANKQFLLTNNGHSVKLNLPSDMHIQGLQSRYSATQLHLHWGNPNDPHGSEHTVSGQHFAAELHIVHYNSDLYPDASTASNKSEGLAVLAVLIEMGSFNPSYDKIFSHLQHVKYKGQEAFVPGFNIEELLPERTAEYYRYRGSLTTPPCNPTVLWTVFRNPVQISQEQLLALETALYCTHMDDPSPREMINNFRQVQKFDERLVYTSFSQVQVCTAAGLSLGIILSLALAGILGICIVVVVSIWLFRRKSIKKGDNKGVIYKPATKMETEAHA
SMILES,Ki [1],Ki [2],Ki [3],Ki [4]
O=C(O)c1ccc(N2C(=O)c3cccc4cccc(c34)C2=O)cc1,5.9 nM,1.2 nM,> 1000 nM,> 1000 nM
O=C(O)c1ccc(N2C(=O)c3ccc([N+](=O)[O-])cc3C2=O)cc1,–,–,> 1000 nM,> 1000 nM
NS(=O)(=O)c1ccc(CN2C(=O)c3nccnc3C2=O)cc1,5.9 nM,–,–,–
O=C(O)c1ccc(N2C(=O)c3nccnc3C2=O)cc1,22.1 nM,–,> 1000 nM,> 1000 nM
NS(=O)(=O)c1ccc(CN2C(=O)c3cccc4cccc(c34)C2=O)cc1,4.6 nM,–,–,–
NS(=O)(=O)c1ccc(N2C(=O)c3cccc4cccc(c34)C2=O)cc1,4.9 nM,–,–,–
NS(=O)(=O)c1ccc(CN2C(=O)CCC2=O)cc1,29.3 nM,–,–,–
NS(=O)(=O)c1ccc(N2C(=O)CCC2=O)cc1,10.8 nM,–,–,–
O=C(O)c1ccc(N2C(=O)CCC2=O)cc1,506 nM,–,–,> 1000 nM
Cc1ccc2c(c1)C(=O)N(Cc1ccc(S(N)(=O)=O)cc1)C2=O,5.9 nM,0.85 nM,21.8 nM,26.2 nM
Cc1ccc2c(c1)C(=O)N(c1ccc(C(=O)O)cc1)C2=O,350 nM,–,–,> 1000 nM
CC(C)(C)c1ccc2c(c1)C(=O)N(c1ccc(C(=O)O)cc1)C2=O,428 nM,–,–,> 1000 nM
O=C(O)c1ccc(N2C(=O)c3cc(Cl)c(Cl)cc3C2=O)cc1,41.6 nM,–,–,> 1000 nM
NS(=O)(=O)c1ccc(CN2C(=O)c3c(Cl)c(Cl)c(Cl)c(Cl)c3C2=O)cc1,3.1 nM,–,–,–
O=C(O)c1ccc(N2C(=O)c3ccccc3C2=O)cc1,4.9 nM,18.7 nM,30.2 nM,166 nM

# Other lines, results leading:
Ki [1],Ki [2],Ki [3],Ki [4],SMILES
4.4 nM,–,–,> 1000 nM,O=C(O)c1ccc(N2C(=O)c3c(Cl)c(Cl)c(Cl)c(Cl)c3C2=O)cc1
2.9 nM,–,–,–,NS(=O)(=O)c1ccc(N2C(=O)c3nccnc3C2=O)cc1
2.6 nM,–,–,–,NS(=O)(=O)c1ccc(CN2C(=O)[C@H]3CC=CC[C@H]3C2=O)cc1
4.4 nM,0.57 nM,31.2 nM,4.8 nM,NS(=O)(=O)c1ccc(N2C(=O)[C@H]3CC=CC[C@H]3C2=O)cc1
4.1 nM,–,–,–,NS(=O)(=O)c1ccc(CN2C(=O)c3ccccc3C2=O)cc1
3.3 nM,–,–,–,Cc1ccc2c(c1)C(=O)N(c1ccc(S(N)(=O)=O)cc1)C2=O
2.4 nM,–,–,–,CC(C)(C)c1ccc2c(c1)C(=O)N(c1ccc(S(N)(=O)=O)cc1)C2=O
3.8 nM,–,–,–,NS(=O)(=O)c1ccc(N2C(=O)c3ccccc3C2=O)cc1
